One test has as its system Primary T-cells. The test can be described thus: Primary T-cell cytokine production (αCD3/αCD28): TNF. Type of test: cell-based, human. Conditions: read-out: 1° T-Cell TNF IC50. On the procedure: 2E8-4E8 PBMC or proliferating T cells grown in rIL-2 from healthy human donors were suspended in PBS were spun down (1500 rpm, 8-10 minutes) and resuspended in 100 ml RPMI Complete media (1% Pen-Strep, 1% L-Glutamine, 10 mM HEPES). The cells were plated in T175 flasks (37° C., 5% CO2) and monocytes were allowed to adhere for 2-3 hours. After monocyte attachment, non-adherent cells were harvested, counted by hemocytometer, washed several times with PBS then resuspended in Yssels Complete Media (Modified IMDM Media with 1% Human AB Serum, 1% Pen-Strep, 1% L-Glutamine, 10 mM HEPES) at […]. 90 uL of the cell dilution were then added to compounds diluted to 2× in Yssel's media and incubated for 30 minutes at 37° C. (5% CO2). After this preincubation step the compound/cell mixture was transferred to stimulation plates, as described below.
(5% CO2) for at 3-5 hours. After incubation with the stimulation antibodies, the cocktail was removed and the plates washed 3 times with PBS prior to addition of the primary T cell/compound mixture.
The compound/cell mixture was transferred to the stimulation plates and incubated for 18 hr at 37° C. (5% CO2). After the cell stimulation, ˜150 μl supernatant were transferred from each well into 96-well filter plates (Coming PVDF Filter Plates) spun down (2000 rpm, 2-3 minutes) and either used immediately for ELISA or LUMINEX measurements or frozen down at −80° C. for future use.
Luminex immunoassay multiplexing for TNF, IL-2, GMSCF, IL-4 and IFNg was performed essentially as described by the manufacturer (Upstate Biotechnology). Essentially 50 uL of sample was diluted into 50 uL assay diluent and 50 uL incubation buffer, then incubated with 100 uL of the diluted detection antibody for 1 hr at RT in the dark. The filter plate was washed 2× in Wash Buffer, then incubated with 100 uL of the diluted secondary reagent (SAV-RPE) for 30 min at RT in the dark. Finally the plates were washed 3 times and bead identification and RPE fluorescent measured by the Luminex instrument.
Varied concentrations of compound were compared to solvent only to determine the inhibition of T-cell activation IC50 of each compound.

The target of another test is T1, Syk kinase (Homo sapiens, UniProt P43405).
T1 construct: purchased Upstate, Lake Placid NY
Kind of test: Syk kinase biochemical fluorescence polarization assay. The settings on record: isolated Syk kinase, fluorescence polarization, 4 uM ATP. On the technique in general: In fluorescence polarisation assays a small probe gives low polarisation when free and higher when bound to something large.

Test [1] deals with cultured human mast cells (CHMC). Kind of test: CHMC low cell density IgE activation: tryptase assay. Type of test: cell-based. In outline: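 Degranulation is read as supernatant tryptase activity, using tryptase substrate incubated 30 min at room temperature. Before this, CHMC at low density (1000-1500 cells/well) rest 1 hr at 37° C and are triggered with anti-IgE for 30 min at 37° C.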

Test [2] deals with basophil cells (human peripheral blood). The test can be described thus: Basophil ionomycin activation: histamine release assay. It counts as cell-based. In outline: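 Dextran-sedimented leukocytes from peripheral blood of dust-mite-allergic human donors were incubated with compound (8 concentrations, 0.5% DMSO, triplicate) and then stimulated with 2 μM ionomycin stock (20 μl added) for 30 min at 37° C. Histamine released into the supernatant was measured by ELISA.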

The nature of test [3]: Sheep model of allergic asthma. Type of test: in vivo. On the procedure: In the sheep model of allergic asthma, sheep are administered aerosols of test article via an endotracheal tube, followed by an aerosol challenge with antigen extracted from the roundworm, Ascaris suum, to which the sheep are naturally allergic. Allergen challenge leads to direct bronchoconstriction (both EAR and LAR) and a persistent non-specific AHR. These three characteristics are similar to those seen in human allergic asthmatics. The activity of the test agent is determined by changes in the lung resistance (RL), which is calculated from measurements of transpulmonary pressure, flow, and respiratory volume. […] The LAR is a less pronounced increase in RL, which starts approximately 5-6 hours following allergen challenge and is resolved by 8 hours post-challenge. Twenty-four hours after the challenge, a dose response to carbachol is measured to determine the AHR, which is expressed as the dose of carbachol required to increase RL by 400% over baseline. (This measurement is referred to as the provocative concentration of carbachol that elicits a 400% increase in RL over baseline (PC400). The data are compared to historical control data for the same individual when administered a saline control aerosol and challenged with Ascaris suum.

For test [4], the system named is cultured human mast cells (CHMC). Kind of test: CHMC low cell density ionomycin activation: hexosaminidase assay. Conditions: hexosaminidase release, read-out: CHMC Ionomycin Hexos. IC50. Type of test: cell-based. On the procedure:
Inhibition of degranulation was measured at both low and high cell density by quantifying the release of the granule specific factors tryptase, histamine and hexosaminidase. Inhibition of release and/or synthesis of lipid mediators was assessed by measuring the release of leukotriene LTC4 and inhibition of release and/or synthesis of cytokines was monitored by quantifying TNF-α, IL-6 and IL-13. Tryptase and hexosaminidase were quantified using fluorogenic substrates as described in their respective examples. Histamine, TNFα, IL-6, IL-13 and LTC4 were quantified using the following commercial ELISA kits: histamine (Immunotech #2015, Beckman Coulter), TNFα (Biosource #KHC3011), IL-6 (Biosource #KMC0061), IL-13 (Biosource #KHC0132) and LTC4 (Cayman Chemical #520211). The protocols of the various assays are provided below.

The mark [5] stands for this setting: low cell density, read-out: CHMC anti-IgE Tryptase.
The mark [6] stands for this setting: basophils, ionomycin activation, histamine release, read-out: Basophils Ionomycin Histamine IC50.
[7] abbreviates: dose, pretreatment and vehicle per compound as in TABLE 5.
Where [8] appears, read: Low Density CHMC, anti-IgE activation, tryptase release, read-out: CHMC anti-IgE Tryptase IC50.
Setting [9] is: administered in an aqueous suspension.

Like-named read-outs stand apart in the source and are kept apart here.

For the molecule `CNC(=O)COc1cccc(Nc2ncc(F)c(Nc3ccc(OC(F)(F)F)c(Cl)c3)n2)c1` [Compound R920410], the IC50 in the test with Primary T-cells is 2990 nM.

`CC1(C)Oc2ccc(Nc3nc(Nc4cc(Cl)cc(Cl)c4)ncc3F)cc2NC1=O` [Compound R927064]: the IC50 against Syk kinase was 466 nM; in test [1] (setting [5]), 212 nM.

`CNC(=O)COc1cccc(Nc2ncc(F)c(Nc3ccc4c(n3)NC(=O)C(C)(C)O4)n2)c1` [Compound R940347]: the IC50 in the test on Primary T-cells came out at 99.2 nM.

As to `OCCCn1ncc2cc(Nc3ncc(F)c(Nc4ccc(Cl)c(Cl)c4)n3)ccc21` [Compound R935391], the IC50 against Syk kinase came out at 223 nM; in test [1] (setting [5]), 212 nM.

In the case of `CNC(=O)COc1cccc(Nc2ncc(F)c(Nc3ccc4c(c3)NCCO4)n2)c1` [Compound R921219], the IC50 against Syk kinase is 41 nM; in test [2] (setting [6]) it was more than 10000 nM. The EAR entry in test [3] (setting [7]) is “greatly reduced”. In test [3] (setting [7]), the “LAR and AHR” value is listed as “blocked”.

As to `Fc1cnc(Nc2ccc3c(c2)OCCO3)nc1Nc1ccc2c(c1)OCCO2` [Compound R926109], the IC50 in test [4] is more than 10000 nM; in test [2] (setting [6]) it was more than 10000 nM; in test [1] (setting [8]), 538 nM.

As for `COc1ccc(Nc2ncc(F)c(Nc3ccc(OC)c(OC)c3)n2)cc1OC` [Compound R926110], the IC50 in test [4] is more than 10000 nM; in test [2] (setting [6]) it was more than 10000 nM; in test [1] (setting [8]), 1070 nM.

`CC1(C)Oc2ccc(Nc3ncc(F)c(Nc4ccc5c(c4)NC(=O)C(C)(C)O5)n3)cc2NC1=O` [Compound R940350] returned an IC50 against Syk kinase of 121 nM.

Regarding `COc1cc(Nc2ncc(F)c(Nc3ccc4c(c3)NC(=O)C(C)(C)O4)n2)cc(OC)c1` [Compound R927050], the values for the IC50 (at Syk kinase; in the test on Primary T-cells; in test [1] (setting [5])) were 114 nM, 600 nM and 73 nM, respectively.

In the case of `CNC(=O)COc1cccc(Nc2ncc(F)c(Nc3ccc4c(c3)NC(=O)C(F)(F)O4)n2)c1` [Compound R921303], the IC50 with Primary T-cells is 796 nM.

With `Nc1cccc(Nc2ncc(F)c(Nc3cccc(N)c3)n2)c1` [Compound R921302], the IC50 in test [2] (read-out: Basophils Ionomycin Histamine) is more than 10000 nM; in the test on Primary T-cells, 1630 nM. For the same molecule, the EAR entry in test [3] (setting [9]) is “failed to inhibit”; in test [3] (setting [7]) it was “unaffected”. Also, the “LAR and AHR” value in test [3] (setting [7]) is “blocked”.

As to `CNC(=O)COc1cccc(Nc2ncc(F)c(Nc3cccc(O)c3)n2)c1` [Compound R926508], in test [2] (setting [6]), the IC50 is more than 10000 nM. Further, in test [3] (setting [7]), the EAR entry was “greatly reduced”; the “LAR and AHR” value is “blocked”.

As to `Oc1cccc(Nc2ncc(F)c(Nc3cccc(O)c3)n2)c1` [Compound R921218], the IC50 in test [2] (setting [6]) is more than 10000 nM. Besides, the EAR result in test [3] (setting [9]) is “failed to inhibit”.

Take `CC1(C)Oc2ccc(Nc3nc(Nc4ccc5cn[nH]c5c4)ncc3F)cc2NC1=O` [Compound R940363]: the IC50 was 6 nM on Syk kinase and 48 nM in test [1] (setting [5]).

For the molecule `COc1ccc(Nc2ncc(F)c(Nc3cccc(O)c3)n2)cc1OC` [Compound R926113], the figures for the IC50 in test [4], in test [2] (setting [6]) and in test [1] (setting [8]) were more than 10000 nM, more than 10000 nM and 413 nM, respectively.

With `CNC(=O)COc1cccc(Nc2ncc(F)c(Nc3ccc4c(n3)NC(=O)CO4)n2)c1` [Compound R921304], in the test on Primary T-cells, the IC50 turned out to be 1500 nM.

The values above are taken from US8158621B2, “Methods of treating or preventing autoimmune diseases with 2,4-pyrimidinediamine compounds” (Rigel Pharmaceuticals, Inc., priority 2002, dated 2012).
